In patent US20230348564A1, “ANTI-CANCER PROTEINS” (UNICHEM LABORATORIES LTD, priority 2020, published 2023):

Experiments:
[1] = test system: KB (Cervical cancer); assay: Xenograft study; type: in vivo, mice; details: IP
From the text: (§1) The Xenograft models used were HT-29, KB, PA-1, MCF-7, PANC-1, T24 and MDA-MB-231. The basic study design for the Xenograft study was as follows: • 1. Cell maintenance and cell suspension preparation • 2. Aseptic injection of tumor cell suspension in the donor animal • 3. Randomization of animals in respective groups • 4. IP dosing of test items in predetermined doses • 5. IP administration of standard • 6. After completion of dosing period. • 7. The Tumor volume recording weekly twice while body weight and clinical signs daily.

[2] = test system: MDA-MB-231 (Mammary gland/breast adenocarcinoma); assay: Xenograft study; type: in vivo, mice; details: MDA-MB-231 xenograft, IP
From the text: as §1

[3] = test system: Meningioma (IOMM-Lee); assay: cytotoxicity in Brain Tumor Cell lines by MTT assay; details: 0.1 Mm-100 μM, 72 h

## COc1cccc2c1C(=O)c1c(O)c3c(c(O)c1C2=O)C[C@@](O)(C(=O)CO)C[C@@H]3O[C@H]1C[C@H](N)[C@H](O)[C@H](C)O1 [Doxorubicin, reference compound]
[1]
  Maximum Tumor Growth Inhibition (%): 64.60%
  Tumor Volume (mm^3) (Mean ± SEM): 616 ± 118 mm^3
[2]
  Maximum Tumor Growth Inhibition (%): 42.12%
  Tumor Volume (mm^3) (Mean ± SEM): 808.47 ± 178.59 mm^3
[3]
  % of cytotoxicity: 46.6%-54.5%
